Data as given in patent US8735421B2, “Imidazoquinolinyl sulfonamides” (3M Innovative Properties Company, priority 2003, dated 2014).

For `CCOCc1nc2c(N)nc3ccccc3c2n1CCCCS(=O)(=O)Nc1ccccn1` [Example 40, 4-[4-Amino-2-(ethoxymethyl)-1H-imidazo[4,5-c]quinolin-1-yl]-N-(pyridin-2-yl)butane-1-sulfonamide], which melting point is on record?
Its melting point is 197 to 200 °C.

With `CCc1nc2c(N)nc3ccccc3c2n1CCCS(=O)(=O)N(C)C` [Example 2, N,N-Dimethyl 3-(4-amino-2-ethyl-1H-imidazo[4,5-c]quinolin-1-yl)propane-1-sulfonamide] as the molecule, how does the melting point read?
Its melting point is 209 to 211 °C.

With `CCOCc1nc2c(N)nc3c(c2n1CCCCS(=O)(=O)N(C)C)CCCC3` [Example 19, N,N-Dimethyl 4-(4-amino-2-ethoxymethyl-6,7,8,9-tetrahydro-1H-imidazo[4,5-c]quinolin-1-yl)butane-1-sulfonamide] as the molecule, how does the melting point read?
The melting point was 165 to 167 °C.

With `CCCc1nc2c(N)nc(C)c(C)c2n1CCCCS(=O)(=O)NC` [Example 27, N-Methyl 4-(4-Amino-6,7-dimethyl-2-propyl-1H-imidazo[4,5-c]pyridin-1-yl)butane-1-sulfonamide] as the molecule, how does the melting point read?
Its melting point is 164 to 166 °C.
